The values that follow come from US12180226B2, “Spirotricycle RIPK1 inhibitors and methods of uses thereof” (Merck Sharp & Dohme LLC, priority 2021, dated 2024).

SMILES strings stand for the structures. pEC50: −log10 of the molar value. Structures can show the parent of a compound that is named as a salt. A value given as a limit tells only on which side of the number the result lay.

Sequence of RIPK1 (recombinant GST-RIPK1 kinase domain, residues 1-327) (Q13546 1-327): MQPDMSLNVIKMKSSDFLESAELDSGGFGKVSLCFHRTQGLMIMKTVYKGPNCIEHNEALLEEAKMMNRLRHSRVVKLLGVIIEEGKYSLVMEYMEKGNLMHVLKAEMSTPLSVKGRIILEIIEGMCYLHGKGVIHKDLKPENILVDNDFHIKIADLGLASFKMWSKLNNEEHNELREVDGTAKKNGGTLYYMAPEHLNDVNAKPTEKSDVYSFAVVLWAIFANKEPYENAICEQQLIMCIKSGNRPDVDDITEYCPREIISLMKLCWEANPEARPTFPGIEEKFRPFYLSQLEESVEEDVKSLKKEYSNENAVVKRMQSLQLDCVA

In the assay the target is RIPK1 (recombinant GST-RIPK1 kinase domain, residues 1-327) (Homo sapiens (Human), UniProt Q13546). Kind of assay: RIPK1-ADP-Glo Enzymatic Assay. Type of assay: biochemical. Particulars: ADP-Glo; 25 nM GST-RIPK1, 300 μM ATP; assay lower limit ~25 nM; read-out: RIPK1 V0 Ec50. The essentials:
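Using dephosphorylated MBP (3 μM) as substrate and 300 μM ATP, 25 nM baculovirus-produced enzyme was reacted for 150 min after a 30-min compound pre-incubation. Luminescent ADP detection followed; lower confidence limit ~25 nM.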
`O=C1N2[C@@H](CC[C@H]2c2ccccc2)OC12CN(c1cccc3ncnn13)C2` [Example 4.133, (5′S,7a′R)-5′-phenyl-1-([1,2,4]triazolo[1,5-a]pyridin-5-yl)tetrahydro-3′H-spiro[azetidine-3,2′-pyrrolo[2,1-b] [1,3]oxazol]-3′-one]: the pEC50 was 7.31. As to `CC1CC2(CCN1C(=O)c1ccccc1)O[C@@H]1CC[C@@H](c3cc(F)cc(F)c3)N1C2=O` (stereo partly drawn) [Example 6.107, (4R,5′S,7a′R)-1-(benzenecarbonyl)-5′-(3,5-difluorophenyl)-2-methyltetrahydro-3′H-spiro[piperidine-4,2′-pyrrolo[2,1-b] [1,3]oxazol]-3′-one], the pEC50 was more than 7.60. `O=C(c1ccccc1)N1CCC2(CC1)O[C@@H]1CC[C@@H](c3cnccn3)N1C2=O` [Example 17.1, (5′S,7a′R)-1-benzoyl-5′-(pyrazin-2-yl)tetrahydro-3′H-spiro[piperidine-4,2′-pyrrolo[2,1-b]oxazol]-3′-one, TFA]: the pEC50 is 7.46. As for `CC(C)(C)OC(=O)/C=C/c1ccc(N2CCC3(CC2)O[C@@H]2CC[C@@H](c4ccccc4)N2C3=O)nc1` [Example 4.163, tert-butyl (2E)-3-{6-[(5′S,7a′R)-3′-oxo-5′-phenyltetrahydro-1H,3′H-spiro[piperidine-4,2′-pyrrolo[2,1-b] [1,3]oxazol]-1-yl]pyridin-3-yl}prop-2-enoate], the figure is 7.52. Regarding `O=C1N2[C@@H](CC[C@H]2c2cc(F)cc(F)c2)OC12CCN(c1ncnn3cccc13)CC2` [Example 13.11, (5′S,7a′R)-5′-(3,5-difluorophenyl)-1-(pyrrolo [2,1-f][1,2,4]triazin-4-yl)tetrahydro-3′H-spiro[piperidine-4,2′-pyrrolo[2,1-b]oxazol]-3′-one, TFA salt], the pEC50 was more than 7.60. As to `O=C(c1ccon1)N1CCC2(CC1)O[C@@H]1CC[C@@H](c3cc(F)cc(F)c3)N1C2=O` [Example 5.45], the negative-log EC50 (pEC50) is 7.51.

For `O=C(c1cccc(N2CCCC2=O)c1)N1CCC2(CC1)O[C@@H]1CC[C@@H](c3cc(F)cc(F)c3)N1C2=O` [Example 6.56, (5′S,7a′R)-5′-(3,5-difluorophenyl)-1-[3-(2-oxopyrrolidin-1-yl)benzene-1-carbon-yl]tetrahydro-3′H-spiro[piperidine-4,2′-pyrrolo[2,1-b][1,3]-oxazol]-3′-one], the negative-log EC50 (pEC50) is more than 7.60. For the compound `O=C(c1ccsc1-c1ncccn1)N1CCC2(CC1)O[C@@H]1CC[C@@H](c3cc(F)cc(F)c3)N1C2=O` [Example 6.36, (5′S,7a′R)-5′-(3,5-difluorophenyl)-1-[2-(pyrimidin-2-yl)thio-phene-3-carbonyl] tetrahydro-3′H-spiro [piperidine-4,2′-pyrrolo[2,1-b][1,3]oxazol]-3′-one], the negative-log EC50 (pEC50) was 6.07. With `N#Cc1ccc(N2CCC3(CC2)O[C@@H]2CC[C@@H](c4cc(F)cc(F)c4)N2C3=O)n2nccc12` [Example 14.1, 7-((5′S,7a′R)-5′-(3,5-difluorophenyl)-3′-oxotetrahydro-3′H-spiro [piperidine-4,2′-pyrrolo [2,1-b]oxazol]-1-yl)pyrazolo[1,5-a]pyridine-4-carbonitrile, TFA], the pEC50 is more than 7.60. On to `COC(=O)c1cnc(N2CCC3(CC2)O[C@@H]2CC[C@@H](c4ccccc4)N2C3=O)cc1Cl` [Example 4.211, methyl 4-chloro-6-[(5′S,7a′R)-3′-oxo-5′-phenyltetrahydro-1H,3′H-spiro[piperidine-4,2′-pyrrolo[2,1-b] [1,3]oxazol]-1-yl]pyridine-3-carboxylate], for which the pEC50 is more than 7.60. On to `N#Cc1cncc([C@@H]2CC[C@H]3SC4(CCN(C(=O)c5ccccc5)CC4)C(=O)N32)c1` [Example 7.4, 5-[(5′S,7a′R)-1-(benzenecarbonyl)-3′-oxotetrahydro-3′H-spiro[piperidine-4,2′-pyrrolo[2,1-b][1,3]thiazol]-5′-yl]pyridine-3-carbonitrile], for which the pEC50 is 6.97.

`Cc1ccnc(C(=O)N2CCC3(CC2)O[C@@H]2CC[C@@H](c4cc(F)cc(F)c4)N2C3=O)n1` [Example 6.88, (5′S,7a′R)-5′-(3,5-difluorophenyl)-1-(4-methylpyrimidine-2-carbonyl)tetrahydro-3′H-spiro[piperidine-4,2′-pyrrolo[2,1-b] [1,3]oxazol]-3′-one]: the pEC50 was 6.87. With `O=C(NC1(C(F)(F)F)CC1)c1nc(N2CCC3(CC2)O[C@@H]2CC[C@@H](c4cc(F)cc(F)c4)N2C3=O)ncc1F` [Example 7.10, 2-[(5′S,7a′R)-5′-(3,5-difluorophenyl)-3′-oxotetrahydro-1H,3′H-spiro[piperidine-4,2′-pyrrolo[2,1-b][1,3]oxazol]-1-yl]-5-fluoro-N-[1-(trifluoromethyl)cyclo-propyl]pyrimidine-4-carboxamide], the negative-log EC50 (pEC50) is 6.83. On to `O=C(c1ccccc1)N1CCC2(O[C@@H]3CC[C@@H](c4ccccc4)N3C2=O)C(F)C1` (single isomer, unassigned) [Example 2.2, (3[R or S],4[S or R], 5′S,7a′R)-1-benzoyl-3-fluoro-5′-phenyltetrahydro-3′H-spiro[piperidine-4,2′-pyrrolo[2,1-b]oxazol]-3′-one], for which the pEC50 was more than 7.60.

On to `Cc1nccn1-c1cc(N2CCC3(CC2)O[C@@H]2CC[C@@H](c4ccccc4)N2C3=O)ncn1` [Example 4.175, (5′S,7a′R)-1-[6-(2-methyl-1H-imidazol-1-yl)pyrimidin-4-yl]-5′-phenyltetrahydro-3′H-spiro[piperidine-4,2′-pyrrolo[2,1-b] [1,3]oxazol]-3′-one], for which the pEC50 is more than 7.60. For the compound `CC(=O)c1cnc(N2CCC3(CC2)O[C@@H]2CC[C@@H](c4ccccc4)N2C3=O)cc1Cl` [Example 4.186, (5′S,7a′R)-1-(5-acetyl-4-chloropyridin-2-yl)-5′-phenyltetrahydro-3′H-spiro[piperidine-4,2′-pyrrolo[2,1-b] [1,3]oxazol]-3′-one], the pEC50 is more than 7.60. With `O=C(c1ccoc1)N1CCC2(CC1)O[C@@H]1CC[C@@H](c3cc(F)cc(F)c3)N1C2=O` [Example 5.36, (5′S,7a′R)-5′-(3,5-difluoro-phenyl)-1-(furan-3-carbon-yl)tetrahydro-3′H-spiro [piperidine-4,2′-pyrrolo-[2,1-b]oxazol]-3′-one], the pEC50 was more than 7.60.

With `Cc1cncc(C(=O)N2CCC3(CC2)O[C@@H]2CC[C@@H](c4cc(F)cc(F)c4)N2C3=O)n1` [Example 6.4, (5′S,7a′R)-5′-(3,5-difluorophenyl)-1-(6-methylpyrazine-2-carbonyl)tetrahydro-3′H-spiro[piperidine-4,2′-pyrrolo[2,1-b] [1,3]oxazol]-3′-one], the pEC50 was 6.12.

Take `O=C1N2C(CCC2c2cc(F)cc(F)c2)SC12CCN(c1ccnc3c(F)cnn13)CC2` (stereo not drawn) [Example 4.110, 5′-(3,5-difluorophenyl)-1-(3-fluoropyrazolo[1,5-a]pyrimidin-7-yl)tetrahydro-3′H-spiro[piperidine-4,2′-pyrrolo[2,1-b]thiazol]-3′-one]: the pEC50 is more than 7.60. For `O=C1N2[C@@H](CC[C@H]2c2cc(F)cc(F)c2)OC12CCN(c1ncc(F)c3nncn13)CC2` [Example 13.13, (5′S,7a′R)-5′-(3,5-difluorophenyl)-1-(8-fluoro-[1,2,4]triazolo[4,3-c]pyrimidin-5-yl)tetrahydro-3′H-spiro[piperidine-4,2′-pyrrolo[2,1-b]oxazol]-3′-one, TFA salt], the pEC50 was 6.44. The result for `N#Cc1cc(N2CC3(C2)O[C@@H]2CC[C@@H](c4cc(F)cc(F)c4)N2C3=O)ncn1` [Example 4.118, 6-((5′S,7a′R)-5′-(3,5-difluorophenyl)-3′-oxotetrahydro-3′H-spiro[azetidine-3,2′-pyrrolo[2,1-b]oxazol]-1-yl)pyrimidine-4-carbonitrile] reads 6.64; that for `COc1ccc(F)c(C(=O)N2CCC3(CC2)O[C@@H]2CC[C@@H](c4cc(F)cc(F)c4)N2C3=O)c1` [Example 6.6, (5′S,7a′R)-5′-(3,5-difluorophenyl)-1-(2-fluoro-5-methoxy-benzene-1-carbonyl) tetrahydro-3′H-spiro [piperidine-4,2′-pyrrolo[2,1-b][1,3]oxazol]-3′-one], more than 7.60. Consider `O=C(c1ccc(-n2nccn2)cc1)N1CCC2(CC1)O[C@@H]1CC[C@@H](c3cc(F)cc(F)c3)N1C2=O` [Example 6.21], for which the negative logarithm of the EC50 (pEC50) was 6.06. For the compound `O=C1N2[C@@H](CC[C@H]2c2ccccc2)OC12CCN(c1nccc(C3CC3)n1)CC2` [Example 11.12, (5′S,7a′R)-1-(4-cyclopropylpyrimidin-2-yl)-5′-phenyltetrahydro-3′H-spiro[piperidine-4,2′-pyrrolo[2,1-b][1,3]oxazol]-3′-one], the pEC50 was 7.01. For `O=C(c1cc(O)ccc1F)N1CCC2(CC1)O[C@@H]1CC[C@@H](c3cc(F)cc(F)c3)N1C2=O` [Example 5.57, (5′S,7a′R)-5′-(3,5-difluoro-phenyl)-1-(2-fluoro-5-hydroxybenzoyl)tetra-hydro-3′H-spiro[piperidine-4,2′-pyrrolo[2,1-b]oxazol]-3'-one], the pEC50 was more than 7.60. As for `O=C(c1nc(N2CCC3(CC2)O[C@@H]2CC[C@@H](c4cc(F)cc(F)c4)N2C3=O)ncc1F)N1CC(C(F)F)C1` [Example 7.8, (5′S,7a′R)-1-{4-[3-(difluoromethyl)azetidine-1-carbonyl]-5-fluoropyrimidin-2-yl}-5′-(3,5-difluorophenyl)tetrahydro-3′H-spiro[piperidine-4,2′-pyrrolo[2,1-b][1,3]oxazol]-3′-one], the figure is more than 7.60; as for `N#Cc1ccc(N2CCC3(CC2)O[C@@H]2CC[C@@H](c4ccccc4)N2C3=O)n2ncnc12` [Example 4.261, 5-[(5′S,7a′R)-3′-oxo-5′-phenyltetrahydro-1H,3′H-spiro[piperidine-4,2′-pyrrolo[2,1-b] [1,3]oxazol]-1-yl][1,2,4]triazolo[1,5-a] pyridine-8-carbonitrile], more than 7.60.

Broadly, the pEC50 is the EC50 on a negative log10 scale, so that one unit is a factor of ten.
